The values below come from US4289910A, “1-Hydroxymethyl-prosten-1-ol derivatives” (American Cyanamid Company, priority 1980, dated 1981).

Common to all, as to format: in vivo
One experiment has as its system Hist. Nature of the experiment: Konzett data, Hist.
The test system of another experiment is Ach. As to the kind of experiment: Konzett data, Ach.
Another experiment concerns 5-HT. As to the kind of experiment: Konzett data, 5-HT.

In the case of `CCCCCC(C)(O)/C=C/C1C(O)CC(=O)C1C/C=C\CCCCO` (racemic) [dl-1,11 ,15-trihydroxymethyl-9-oxo-15-methyl-5-cis-13-trans prostadiene], in the experiment on Hist, the “Hist (ED50)” value was determined as 0.75 mg/kg. In addition, the “Ach (ED50)” value in the experiment on Ach stood at 4.3 mg/kg. Further, the “5-HT (ED50)” value in the experiment with 5-HT is 8.3 mg/kg. Usually ED50 stands for the dose that gives a 50% effect, or the effect in half of the subjects. `C=CC(O)(C/C=C/[C@H]1[C@H](O)CC(=O)[C@@H]1CCCCCCC(O)CO)CCCC` (relative stereo) [3β-(4-Butylhydroxy-4-hydroxy-1,5-hexadienyl)-2α-(7,8-dihydroxyoctyl)-4α-hydroxycyclopentanone] came in with a median effective dose (ED50) in the experiment with Ach of 20.1 mg/kg. As to `CCCCC(C)(O)C/C=C/[C@H]1[C@H](O)CC(=O)[C@@H]1C/C=C\CCCC(O)CO` (relative stereo) [11α,16-Dihydroxy-1-hydroxymethyl-16-methyl-9-oxo-5-cis-13-trans-prostadien-1-ol], the 50% effect level in the experiment with Ach (ED50) was put at a dose of 331 mg/kg.

In the case of `CCCCC(C)(O)C/C=C/[C@H]1[C@H](O)CC(=O)[C@@H]1CCCCCCC(O)CO` (relative stereo) [11α,16-Dihydroxy-1-hydroxymethyl-16-methyl-,9-oxo-13-trans-prosten-1-ol], the median effective dose (ED50) in the experiment with Ach worked out at 75.9 mg/kg. Regarding `C=CC(O)(C/C=C/[C@H]1[C@H](O)CC(=O)[C@@H]1C/C=C\CCCC(O)CO)CCCC` (relative stereo) [11α,16-Dihydroxy-1-hydroxymethyl-16-vinyl-9-oxo-5-cis-13-trans-prostadien-1-ol], in the experiment with Ach, the ED50 worked out at 11.8 mg/kg. This ED50 lies about 6.4-fold lower than the previous one.
